Assay results from patent US20250269039A1, “THERAPEUTIC-OLIGONUCLEOTIDES ACTIVATED BY NUCLEASES” (priority 2020, published 2025).
Read-outs that look alike come from different tables or passages of the source.

What was measured:
[1] = test system: S. epidermidis ATCC 35984; experiment: Broth microdilution MIC and growth inhibition (control bacteria); type: cell-based, Staphylococcus epidermidis; details: for MIC: 18 h, TOUCAN as NA equivalent
Text: (§1) Bacteria strains. S. aureus NCTC 12493 (MRSA), S. aureus ATCC 29213 (MSSA), S. aureus ATCC 43300 (MRSA), S. aureus ATCC 1707 (MRSA), S. aureus ATCC 1717 (MRSA), S. aureus ATCC 1747 (MRSA), S. aureus ATCC 1761 (MRSA), S. aureus ATCC 1766 (MRSA), S. aureus ATCC 1768 (MRSA), S. epidermidis ATCC 35984, E. coli ATCC 25922, K. pneumoniae ATCC 13883, P. mirabilis ATCC 25933, S. enterica ATCC 14028 and P. aeruginosa ATCC 10145 strains were used in this study. Bacteria were initially inoculated onto tryptone soy agar with 5% defibrinated sheep blood (Thermo Fisher Scientific, Inc., Waltham, MA, USA) and incubated at 37° C. for 24 hours. Then, single colonies of each strain were transferred to tryptone soy broth (Thermo Fisher Scientific) for the nuclease activity assay or antimicrobial susceptibility testing, respectively.
(§2) Antimicrobial susceptibility testing. Minimal inhibitory concentrations (MIC) of all nucleoside analogues and TOUCANs against each bacteria strain were determined using broth microdilution method. A single colony obtained from overnight culture on tryptone soy agar with 5% defibrinated sheep blood was inoculated in cation-adjusted Mueller Hinton Broth and adjusted to 10^6 CFU/mL. TOUCANs were prepared in PBS+/+ (treatment) and serial dilutions were made in 96-well polystyrene round bottom microwell plates with 50 μL final volume for each concentration. PBS+/+ was used as untreated control. Next, 50 μL bacteria solutions were added to each well to a final bacteria concentration of 5×10^5 CFU/mL. Plates were incubated at 37° C. in Cytation 1 Cell Imaging Multimode Reader. Growth curves were obtained by measuring optical densities at 600 nm every 10 minutes for 18 hours using Cytation 1 Cell Imaging Multimode Reader. In addition, visual inspection of the plates was carried out after 18 hours and photographs were taken. MICs were defined as the lowest drug concentration in the microwell at which bacterial growth was not visible at the end of the incubation period. Besides MIC determination, specificity of TOUCAN 7mGe was also shown with subcultures on chromogenic media. For this purpose, 5 μL of different concentrations of each strain were inoculated onto CHROM agar Orientation Media (Becton Dickinson) and the bacterial growth of each bacteria strain tested was observed by naked eye after incubation at 37° C. for 24 hours. Finally, photographs of the chromogenic media were taken.

[2] = test system: K. pneumoniae ATCC 13883; experiment: as above; type: cell-based; details: for MIC: TOUCAN as NA equivalent
Text: as §1, §2

[3] = test system: P. aeruginosa ATCC 10145; experiment: as above; type: cell-based; details: for MIC: TOUCAN as NA equivalent
Text: as §1, §2

[4] = test system: S. enterica ATCC 14028; experiment: as above; type: cell-based; details: for MIC: TOUCAN as NA equivalent
Text: as §1, §2

[5] = test system: S. aureus ATCC1766; experiment: Mouse thigh muscle infection model: gross pictures, histopathology, bacteria counts; type: in vivo, mice; details: for histopathological analysis of infected leg / visible bacterial infection of infected leg (gross photographs): mice, i.v.; for histopathological analysis of infected leg: 20 mg/kg/24 hour Floxuridine equivalent, FIG. 7d-g; for visible bacterial infection of infected leg (gross photographs): four doses equivalent to 5 mg/kg Floxuridine over 24 hours, FIG. 7a-c
Description: In vivo assessment of the therapeutic efficacy of TOUCANs in a mouse infection model. All animal experiments described in this study were conducted at the Linköping University Center for Biomedical Resources and were approved by the Swedish Ethical Board “Jordbruksverket” under the animal protocol 1253. All experiments were conducted according to the principles expressed in the Declaration of Helsinki. Six-weeks old female […] mice were divided into three different groups: Placebo (saline solution), Floxuridine alone and TOUCAN 7mFx, with 8 mice per group. First, to induce the infection, S. aureus ATCC1766 strain was cultured on tryptone soy agar with 5% defibrinated sheep blood, and single colonies were transferred to 25 mL tryptone soy broth and incubated at 37° C. for 12 hours with 200 rpm shaking. Next, bacteria solution was diluted 1/100 using PBS+/+ (˜10^7 CFU/mL) and 50 μL (˜5×10^5 CFU) were injected into the right thigh muscles of all mice under sterile conditions and 2% isoflurane anesthesia. This method was optimized based on our previous animal infection model.^16 In this model, the left uninfected leg was used as control for each animal. This model induces reproducible infections after 24 hours. Next, the therapeutic regime was adapted from a previous study that validated the efficacy of several antibiotics against S. aureus.^28 We have treated the mice for 24 hours with four doses of TOUCAN 7mFx equivalent to 5 mg/kg of Floxuridine in 100 μL of PBS−/−, administered intravenously by tail vein injections. The first dose was administered after 2 hours post-inoculation, followed by 3 additional injections at the same concentration every 6 hours. In total, each animal was given TOUCAN 7mFx equivalent to 20 mg/kg/24 hour of Floxuridine. In this study, two additional groups, Placebo and Floxuridine alone, were also tested in infected animals. In the Placebo group, mice were injected with a saline solution (PBS), and in the Floxuridine group, mice were injected with 20 mg/kg/24 hours of Floxuridine under the same conditions indicated for TOUCAN 7mFx. After 24 hours, blood samples were collected, and mice were euthanized. For a thorough blood analysis, we have included an additional group of uninfected/untreated mice as control. Next, gross pictures of both legs were taken and samples for histopathological and bacteriological analyses were collected. At least four mice per group per analysis were used in this study.
Gross pictures. Once the mice were euthanized, the skin from legs and dorsal part was removed very carefully to allow observation of the bacterial infection and the associated tissue damage. Next, photographs were taken to document the localized infection for each animal.
Histopathological analysis. To evaluate the histopathological features of infected and uninfected tissues, the thigh muscles of the animals were dissected. Subsequently, tissues were transferred to 4% buffered formaldehyde solution and stored at 4° C. for 24 hours. Then, tissues were removed from the formaldehyde solution and transferred into 50% ethanol for 15 minutes followed by 70% ethanol until processed. Next, tissues were fixed, dehydrated and wax infiltrated using a Leica TP1020 system for 7 hours. Subsequently, tissues were embedded in paraffin using a Leica EG 1150 system. The sections slides were prepared using an Automatic Rotary Microtome HM355S system and finally, samples were stained with Hematoxylin-Eosin (H&E) using an Automatic Leica ST4020 Linear Stainer. The slides were imaged using an Olympus BX51 light microscope.
Bacteria counts. To measure viable bacteria in mice, infected and uninfected tissues from both legs were collected, transferred to individual 1.5 mL vials and weighted on a microbalance. Each sample was homogenized in 1 mL of PBS using Fisherbrand Bead Mill 4 automatic homogenizer (Fisher Scientific). The homogenized solutions were serially diluted to 1:100, 1:1.000, 1:10.000 and 1:100.000. […]

[6] = infected leg, CFU/g, after 24 hours, FIG. 7h

Compound	MIC ([1]; Staphylococcus epidermidis, ATCC35984, S. epidermidis ATCC 35984, read-out: MIC) [µg/mL]	MIC ([2]; Klebsiella pneumoniae, ATCC13883, 18 h, read-out: MIC) [µg/mL]	MIC ([3]; Pseudomonas aeruginosa, ATCC10145, 18 h, read-out: MIC) [µg/mL]	MIC ([4]; Salmonella enterica, ATCC14028, 18 h, read-out: MIC) [µg/mL]	bacteria count of infected leg ([5]; infected leg, after 24 hours, FIG. 7h)	histopathological analysis of infected leg [5]	visible bacterial infection of infected leg (gross photographs) [5]	MIC ([1]; S. epidermidis ATCC 35984) [µg/mL]	TOUCAN % Growth inhibition ([1]; S. epidermidis ATCC 35984, mean ± SD, n = 3) [%]	growth inhibition, dose response ([1]; S. epidermidis, all concentrations tested, FIG. 5)	MIC ([2]; 18 h) [µg/mL]	TOUCAN % Growth inhibition ([2]; mean ± SD, n = 3) [%]	MIC ([3]; 18 h) [µg/mL]	TOUCAN % Growth inhibition ([3]; mean ± SD, n = 3) [%]	MIC ([4]; 18 h) [µg/mL]	TOUCAN % Growth inhibition ([4]; mean ± SD, n = 3) [%]	times less bacteria recovered compared to Floxuridine group [5, 6] [times]	times less bacteria recovered compared to Placebo group [5, 6] [times]
O=c1[nH]c(=O)n([C@H]2C[C@H](O)[C@@H](CO)O2)cc1F [Floxuridine, reference compound]	0.04	20	> 40	20	high bacteria count	clear evidence of bacterial infection, inflammation, and neutrophil infiltration	slightly stronger infection	–	–	–	–	–	–	–	–	–	–	–
mU-mU-mU-mU-T-T-Fx [TOUCAN 7mFx]	–	–	–	–	–	minimal inflammation with residual neutrophil infiltration	do not show any visible signs of bacterial infection	>40	7.4 ± 4.0	no growth inhibition	>40	0 ± 0.00	>40	7.2 ± 1.4	>40	10.8 ± 2.1	2949	642
